Measured values as given in publication PMC3718742, “Proline Dehydrogenase Regulates Redox State and Respiratory Metabolism in Trypanosoma cruzi” (PLoS ONE, 2013).

T1: recombinant TcPRODH (Trypanosoma cruzi, UniProt Q4CVA1)
T1 construct: gene Tc00.1047053506411.30; dimer (native gel of mitochondria, 140 kDa)
T1 sequence (Q4CVA1 17-566): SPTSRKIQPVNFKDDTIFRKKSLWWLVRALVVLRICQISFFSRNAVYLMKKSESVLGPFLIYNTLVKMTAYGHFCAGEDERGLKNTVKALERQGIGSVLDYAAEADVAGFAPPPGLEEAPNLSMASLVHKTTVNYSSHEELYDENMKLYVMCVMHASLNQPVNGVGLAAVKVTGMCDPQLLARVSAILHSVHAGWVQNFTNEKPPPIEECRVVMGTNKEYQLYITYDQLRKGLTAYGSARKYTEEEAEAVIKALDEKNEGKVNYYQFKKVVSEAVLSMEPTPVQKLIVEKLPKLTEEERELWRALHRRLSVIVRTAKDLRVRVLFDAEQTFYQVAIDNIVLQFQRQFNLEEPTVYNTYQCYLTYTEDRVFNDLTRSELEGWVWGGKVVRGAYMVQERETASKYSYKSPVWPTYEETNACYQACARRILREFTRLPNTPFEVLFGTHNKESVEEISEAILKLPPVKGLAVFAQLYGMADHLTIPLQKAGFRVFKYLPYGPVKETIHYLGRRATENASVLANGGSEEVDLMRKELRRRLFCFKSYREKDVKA

B1: recombinant TcPRODH (Trypanosoma cruzi strain CL Brener) (protein)
chain: T1 sequence (Q4CVA1 17-566)

Experiments:
recombinant TcPRODH = biological target: T1, recombinant TcPRODH; assay: UV-visible spectrum of purified enzyme; cofactor dependence of activity; assay type: biochemical; conditions: flavin peaks at 370 and 450 nm; NAD+ and NADP+ not accepted
purified protein = substrate: O=C(O)[C@@H]1CCCN1; assay: purified protein; conditions: DCPIP/phenazine methosulfate acceptor, MOPS, MgCl2, glycerol, pH 7.5, error printed as ±1.69 in text (b1)

| Molecule | UV-visible spectrum of purified enzyme; cofactor dependence of activity (recombinant TcPRODH) | Km (purified protein) |
| --- | --- | --- |
| Cc1cc2nc3c(=O)[nH]c(=O)nc-3n(C[C@H](O)[C@H](O)[C@H](O)COP(=O)(O)OP(=O)(O)OC[C@H]3O[C@@H](n4cnc5c(N)ncnc54)[C@H](O)[C@@H]3O)c2cc1C [FAD] | purified enzyme had a typical flavoprotein absorbance spectrum, characterized by two flavin absorption peaks |  |
| B1 |  | 16.58 ± 6.08 µM |
